In patent US12673017B2, “Ultra-mild, concentrated and self-preserving cleansing compositions for personal care” (GALAXY SURFACTANTS LTD, priority 2022, dated 2026):

Test system: blood capillaries of chorioallantoic membrane of hen's fertilized egg
Assay: HET-CAM test (hen's egg test on chorioallantoic membrane, Invittox protocol 47)
Set-up: species or system White Leghorn chicken
Conditions: for Irritancy Score by HET-CAM: Table 2, individual surfactants
Source text: The HET-CAM (Hen's egg test on chorioallantoic membrane, as per Invittox Protocol 47) method. The hen's egg test on Chorioallantoic Membrane (HET-CAM) is an alternative in-vitro method developed by Luepke et al. to substitute Draize test that was done on rabbits. (Luepke N. Hen's egg chorioallantoic membrane test for irritation potential. Food Chem Toxicol. 1985; 23(2):287-291). It is subsequently modified by […] et al. ([…] Test. The […]. Databank of in-vitro techniques. […] Subsequently, the methodology is successfully adopted to personal care by […] et al. ([…], Bracher M, Courtellemont P, de Silva O. The HET-CAM, a useful in vitro assay for assessing the eye irritation properties of cosmetic formulations and ingredients. Toxicol. […] The egg's shell is opened at the side of the air chamber, and the egg white membrane is removed while avoiding any damage to the fine blood vessels. […] Based on Irritation score the damaging potential is classified into four categories as described in the table 1 below. White Leghorn chicken eggs (up to 9 days of incubation) are candled to ensure that all are viable. Egg shell is marked using a rotating dentist-sawblade and the section of the shell is removed. The membrane is carefully moistened with 0.9% NaCl solution and the eggs are replaced in incubator until ready for assaying. […] Onset of haemorrhage (Bleedings), vascular lysis (Blood vessel disintegration), coagulation (protein denaturation intra and extra vascular) is monitored. The onset of the biological endpoints is recorded in number of seconds and the irritancy scores are calculated as per formula prescribed in the protocol document. The irritancy score is broadly divided into four different categories of damaging potential as described in Table 1.

Compound: Caprylyl/capryl glucoside
- Irritancy Score by HET-CAM (1% test solution): 8

Compound: Cocamido propyl sulphobetaine
- Irritancy Score by HET-CAM (1% test solution): 10

Compound: Lauryl glucoside
- Irritancy Score by HET-CAM (1% test solution): 6.5

Compound: Lauramido propyl PG dimonium chloride phosphate
- Irritancy Score by HET-CAM (1% test solution): 8.0

Compound: CCCCCCCCCCCCOS(=O)(=O)[O-].[Na+] [Sodium lauryl sulphate]
- Irritancy score (IS) by HET-CAM: around 16
- Irritancy Score by HET-CAM (1% test solution): 16.7
- C, calculated coagulation part of IS (Table 3b): 5.0
- H, calculated haemorrhage part of IS (Table 3b): 4.5
- IS (irritation score) (Table 3b): 15.1
- L, calculated lysis part of IS (Table 3b): 5.6
- C, time for appearance of coagulation (Table 3b, 1% test solution): 134 s
- H, time for appearance of haemorrhage (Table 3b, 1% test solution): 31 s
- L, time for appearance of lysis (Table 3b, 1% test solution): 63 s
- C, time for appearance of coagulation (Table 6a): 134 s
- Calculation C (Table 6a): 5.0
- Calculation H (Table 6a): 4.5
- Calculation L (Table 6a): 5.6
- H, time for appearance of haemorrhage (Table 6a): 31 s
- IS (irritation score) (Table 6a): 15.1
- L, time for appearance of lysis (Table 6a): 63 s
- C, calculated coagulation part of score (Table 12): 5.0
- C, time for appearance of coagulation (Table 12): 134 s
- H, calculated haemorrhage part of score (Table 12): 4.5
- H, time for appearance of haemorrhage (Table 12): 31 s
- Irritancy score (Table 12): 15.1
- L, calculated lysis part of score (Table 12): 5.6
- L, time for appearance of lysis (Table 12): 63 s

Compound: Cocomido propyl betaine
- Irritancy Score by HET-CAM (1% test solution): 10.8

Compound: Cocamidopropyl PG dimonium chloride phosphate
- Irritancy Score by HET-CAM (1% test solution): 7.5
